Laboratory results published in PubChem BioAssay AID1963853 (Molecular Pharmacology Branch, DTP, NCI, 2024).

Test system: 266295-075-R-J1-PDC spheroid viability
Test: Anticancer human tumor 266295-075-R-J1-PDC patient-derived head and neck squamous carcinoma cell line growth inhibition [POLQ]
Conditions: spheroids with HUVEC and MSC; for IC50: curve of first compound; for viability, T/C: stronger effect = lower value; active = viability on the fitted dose curve at most 10% of control; inactive = the rest
Procedure, shortened: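 Three-cell-type spheroids modelling solid tumor plus stroma served as the readout system; POL inhibitors were tested individually and in combination, concentration ranges set by clinical Cmax where known.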

[1] = second compound 0.0316 µM, first compound 0.0316 µM
[2] = second compound 0.0316 µM, first compound 0.1 µM
[3] = second compound 0.0316 µM, first compound 0.316 µM
[4] = second compound 0.0316 µM, first compound 1 µM
[5] = second compound 0.0316 µM, first compound 3.16 µM
[6] = second compound 0.0316 µM, first compound 10 µM
[7] = second compound 0.1 µM, first compound 0.0316 µM
[8] = second compound 0.1 µM, first compound 0.1 µM
[9] = second compound 0.1 µM, first compound 0.316 µM
[10] = second compound 0.1 µM, first compound 1 µM
[11] = second compound 0.1 µM, first compound 3.16 µM
[12] = second compound 0.1 µM, first compound 10 µM
[13] = second compound 0.316 µM, first compound 0.0316 µM
[14] = second compound 0.316 µM, first compound 0.1 µM
[15] = second compound 0.316 µM, first compound 0.316 µM
[16] = second compound 0.316 µM, first compound 1 µM
[17] = second compound 0.316 µM, first compound 3.16 µM
[18] = second compound 0.316 µM, first compound 10 µM
[19] = second compound 1 µM, first compound 0.0316 µM
[20] = second compound 1 µM, first compound 0.1 µM
[21] = second compound 1 µM, first compound 0.316 µM
[22] = second compound 1 µM, first compound 1 µM
[23] = second compound 1 µM, first compound 3.16 µM
[24] = second compound 1 µM, first compound 10 µM
[25] = second compound 3.16 µM, first compound 0.0316 µM
[26] = second compound 3.16 µM, first compound 0.1 µM
[27] = second compound 3.16 µM, first compound 0.316 µM
[28] = second compound 3.16 µM, first compound 1 µM
[29] = second compound 3.16 µM, first compound 3.16 µM
[30] = second compound 3.16 µM, first compound 10 µM
[31] = second compound 10 µM, first compound 0.0316 µM
[32] = second compound 10 µM, first compound 0.1 µM
[33] = second compound 10 µM, first compound 0.316 µM
[34] = second compound 10 µM, first compound 1 µM
[35] = second compound 10 µM, first compound 3.16 µM
[36] = second compound 10 µM, first compound 10 µM
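Also: spheroids exposed to compounds for seven days before readout.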

Nc1ccn(C2OC(CO)C(O)C2(F)F)c(=O)n1 (centres undefined) + Cc1cccc(N(C)C(=O)C2C(O)CCN2c2nc(C)cc(C(F)(F)F)c2C#N)c1
inactive: viability, T/C [1] 93.5% | viability, T/C [2] 81.9% | viability, T/C [3] 81.5% | viability, T/C [4] 68.3% | viability, T/C [5] 79.5% | viability, T/C [6] 69.4% | viability, T/C [7] 85.8% | viability, T/C [8] 93% | viability, T/C [9] 79.6% | viability, T/C [10] 76% | viability, T/C [11] 83.3% | viability, T/C [12] 73.7% | viability, T/C [13] 87.8% | viability, T/C [14] 78.5% | viability, T/C [15] 77% | viability, T/C [16] 94.9% | viability, T/C [17] 76.6% | viability, T/C [18] 72.4% | viability, T/C [19] 99.8% | viability, T/C [20] 82.8% | viability, T/C [21] 86% | viability, T/C [22] 84.7% | viability, T/C [23] 80.8% | viability, T/C [24] 80.2% | viability, T/C [25] 90.6% | viability, T/C [26] 96.9% | viability, T/C [27] 72.8% | viability, T/C [28] 78.1% | viability, T/C [29] 91% | viability, T/C [30] 67.1% | viability, T/C [31] 86.8% | viability, T/C [32] 88.4% | viability, T/C [33] 72% | viability, T/C [34] 75.1% | viability, T/C [35] 82.1% | viability, T/C [36] 68.2%
> 10 µM: IC50 (second compound 0.0316 µM) | IC50 (second compound 0.1 µM) | IC50 (second compound 0.316 µM) | IC50 (second compound 1 µM) | IC50 (second compound 3.16 µM) | IC50 (second compound 10 µM)

O=c1[nH]cc(F)c(=O)[nH]1 + COC1C(OC(N)=O)C(O)C(Oc2ccc3c(O)c(NC(=O)c4ccc(O)c(CC=C(C)C)c4)c(=O)oc3c2C)OC1(C)C
inactive: viability, T/C [1] 103% | viability, T/C [2] 86.2% | viability, T/C [3] 93.1% | viability, T/C [4] 107% | viability, T/C [5] 96.1% | viability, T/C [6] 100% | viability, T/C [7] 106% | viability, T/C [8] 110% | viability, T/C [9] 86.8% | viability, T/C [10] 93.6% | viability, T/C [11] 89% | viability, T/C [12] 103% | viability, T/C [13] 103% | viability, T/C [14] 106% | viability, T/C [15] 97.3% | viability, T/C [16] 97.3% | viability, T/C [17] 91.7% | viability, T/C [18] 89% | viability, T/C [19] 94.2% | viability, T/C [20] 122% | viability, T/C [21] 93.2% | viability, T/C [22] 111% | viability, T/C [23] 90.6% | viability, T/C [24] 89.9% | viability, T/C [25] 112% | viability, T/C [26] 93.5% | viability, T/C [27] 108% | viability, T/C [28] 97.8% | viability, T/C [29] 105% | viability, T/C [30] 90.5% | viability, T/C [31] 102% | viability, T/C [32] 103% | viability, T/C [33] 96.2% | viability, T/C [34] 103% | viability, T/C [35] 98.7% | viability, T/C [36] 78.9%
> 10 µM: IC50 (second compound 0.0316 µM) | IC50 (second compound 0.1 µM) | IC50 (second compound 0.316 µM) | IC50 (second compound 1 µM) | IC50 (second compound 3.16 µM) | IC50 (second compound 10 µM)
